# From patent US6369090B1, “Fungicidal mixture” (BASF Aktiengesellschaft, priority 1997, dated 2002)
# Columns and labels:
# [1] = tested on: Erysiphe graminis forma specialis tritici; assay: Activity against powdery mildew of wheat (protective, wheat seedlings cv. Frühgold); format: in vivo; details: single active ingredient, 7 days
# Source text: The active ingredients, separately or together, were formulated as a 10% emulsion in a mixture of 63% by weight of cyclohexanone and 27% by weight of emulsifier, and diluted with water to the desired concentration. […]
# Activity against powdery mildew of wheat
# Leaves of wheat seedlings cv. “Frühgold” which had been grown in pots were sprayed to runoff point with an aqueous preparation of active ingredient which had been prepared from a stock solution comprising 10% of active ingredient, 63% of cyclohexanone and 27% of emulsifier and, 24 hours after the spraycoating had dried on, dusted with spores of powdery mildew of wheat (Erysiphe graminis forma specialis tritici). The test plants were subsequently placed in a greenhouse at from 20 to 24° C. and a relative atmospheric humidity of 60 to 90%. After 7 days, the extent of mildew development was determined visually as percent infection of the total leaf area.
# (§1) The visually determined values for the percentage of infected leaf area were converted into efficacies as percent of the untreated control. Efficacy 0 means the same disease level as in the untreated control, efficacy 100 means 0% disease. The expected efficacies for active ingredient combinations were determined using Colby's formula (Colby, S. R. “Calculating synergistic and antagonistic responses of herbicide combinations”, Weeds, 15, p. 20-22, 1967) and compared with the observed efficacies.
# Puccinia recondita = assay: Curative action against Puccinia recondita on wheat (brown rust of wheat); format: in vivo; details: single active ingredient, 7 days
# Description: The active ingredients, separately or together, were formulated as a 10% emulsion in a mixture of 63% by weight of cyclohexanone and 27% by weight of emulsifier, and diluted with water to the desired concentration.
# The expected efficacies of the mixtures of the active ingredients were determined using Colby's formula [R. S. Colby, Weeds 15, 20-22 (1967)] and compared with the observed efficacies.
# Colby's formula: E=x+y−x·y/100
# E expected efficacy, expressed in % of the untreated control, when using the mixture, disclosed in DE Appl. 19617232.2, of the active ingredients I and II (=active ingredient mixture A) and the active ingredients III at the concentrations a and c […]
# x efficacy, expressed in % of the untreated control, when using a mixture, disclosed in DE Appl. 19617232.2, of the active ingredients I and II at a concentration of a y efficacy, expressed in % of the untreated control, when using active ingredient III at a concentration of c Curative action against Puccinia recondita on wheat (brown rust of wheat) Leaves of wheat seedlings cv. “Frühgold” which had been grown in pots were dusted with spores of brown rust (Puccinia recondita). The pots were then kept for 24 hours in a chamber of high atmospheric humidity (90 to 95%) at 20 to 22° C. During this time, the spores germinated and the germinal tubes penetrated into the leaf tissue. The next day, the infected plants were sprayed to runoff point with an aqueous preparation of active ingredient which had been prepared from a stock solution comprising 10% of active ingredient, 63% of cyclohexanone and 27% of emulsifier. After the spray coating had dried on, the test plants were cultivated in a greenhouse at temperatures from 20 to 22° C. and at 65 to 70% relative atmospheric humidity for 7 days. The extent of the rust fungus development on the leaves was then determined.
# as §1
SMILES,Efficacy in % of the untreated control ([1]; 0.31 ppm in the spray liquor) [%],Efficacy in % of the untreated control ([1]; 1.25 ppm in the spray liquor) [%],Efficacy in % of the untreated control (Puccinia recondita; 0.31 ppm in the spray liquor) [%],Efficacy in % of the untreated control (Puccinia recondita; 1.25 ppm in the spray liquor) [%]
"CC(C)(C)C(O)(CCc1ccc(Cl)cc1)n1cncn1 (stereo not drawn) [III.27, 1-(4-chlorophenyl)-4,4-dimethyl-3-(1H-1,2,4-triazol-1yl)pentan-3-ol]",8,39,0,0
"CCCC1COC(Cn2cncn2)(c2ccc(Cl)cc2Cl)O1 (racemic) [III.24, (±)-1-{[2-(2,4-dichlorophenyl)-4-propyl-1,3-dioxolan-2-yl]methyl}-1H-1,2,4-triazole]",8,8,0,0
"Fc1ccc([C@]2(Cn3cncn3)O[C@@H]2c2ccccc2Cl)cc1 (racemic) [III.8, (2RS, 3RS)-1-[3-(2-chlorophenyl)-2,3-epoxy-2-(4-fluorophenyl)propyl]-1H-1,2,4-triazole]",,,0,
"CCCN(CCOc1c(Cl)cc(Cl)cc1Cl)C(=O)n1ccnc1 [III.23, N-propyl-N-[(2,4,6-trichlorophenoxy)ethyl]imidazole-1-carboxamide]",0,0,0,0
"C[Si](Cn1cncn1)(c1ccc(F)cc1)c1ccc(F)cc1 [III.12, bis-(4-fluorophenyl)(methyl)-(1H-1,2,4-triazol-1-ylmethyl)silane]",,,0,0
